Laboratory results taken from patent US7531320B2, “Modulation of β-catenin/TCF-activated transcription” (priority 2003, dated 2009).

System: c-jun
Experiment: Real Time RT-PCR in SW480 cells, c-jun
Format: cell-based, human
Settings: 25 μM; for ΔCT c-jun: relative to β-actin
Description: The RNeasy Midi Kit (Qiagen) was used for RNA extraction and Real Time RT-PCR was performed according to the protocol provided with the SYBR Green PCR Master Mix Kit (Perkin Elmer Biosystems, Shelton, Conn.). The primers used for cyclin D1, axin2, hnkd, c-myc, c-jun, and fra-1 amplifications were: cyclin D1 forward primer:5′-[…]-CCTGCTG-3′ (SEQ ID NO: 32) reverse primer: 5′-[…]-3′ (SEQ ID NO: 33) leading to a product size of approximately 300 bp; axin2 forward primer: 5′-[…] GGAAA-CT-3′ (SEQ ID NO: 34) and reverse primer: 5′-[…]-GAGA-3′ (SEQ ID NO: 35); hnkd forward primer: 5′-[…] TTGCGT-3′ (SEQ ID NO: 36) and the reverse primer: 5′-[…] ACGT-3′ (SEQ ID NO: 37); c-myc forward primer: 5′-GAA-[…] CTGC-3′ (SEQ ID NO: 38) and reverse primer: 5′-[…]-G-3′ (SEQ ID NO: 39); c-jun forward primer: 5′-[…]-3′ (SEQ ID NO: 40) and reverse primer: 5′-[…]-3′ (SEQ ID NO: 41); fra-1 forward primer: 5′-ACC-[…]-[…]-3′ (SEQ ID NO: 42) and reverse primer: 5′-[…]-TT-3′ (SEQ ID NO: 43). β-actin was used for normalization. […]
1 μg of mRNA, for each time point, was subjected to Real Time RT-PCR. Expression level of endogenous cyclin D1, c-myc, fibronectin, hnkd, axin2, c-jun, and BMP-4 were measured relative to β-actin. Quantitation of The ΔCycle of Threshold (CT) values was determined by subtracting the average values of each set by the corresponding average values obtained for β-actin. […]
The cyclin D1 gene is inappropriately expressed in many different tumor types, and is known to be a direct target of the Wnt/β-catenin pathway (Shtutman et al., “The cyclin D1 gene is a target of the beta-catenin/LEF-1 pathway,” Proc. Natl. Acad. Sci. USA 96:5522-27 (1999); Tetsu et al., “Beta-catenin regulates expression of cyclin D1 in colon carcinoma cells,” Nature 398:422-26 (1999)). […] Expression level of endogenous cyclin D1, c-myc, fibronectin, hnkd, axin2, c-jun, and BMP-4 were measured relative to β-actin. Quantitation of The ΔCycle of Threshold (CT) values was determined by subtracting the average values of each set by the corresponding average values obtained for β-actin. […]

With O=C1C(Cc2ccc(O)cc2)N2C(=O)CCN(C(=O)NCc3ccccc3)C2CN1Cc1cccc2ccccc12 (stereo not drawn) [COMPOUND 1] the “mRNA c-jun (direction)” value was “↑”, the ΔCT c-jun (4 hours) was 0 and the ΔCT c-jun (24 hours) was −2.9.
